Test results reported in patent publication US5695970A, “Glucan lyase producing 1,5-anhydrofructose” (priority 1992, dated 1997).
Where two headings read alike, the source gives them in different places.

What was measured:
[1] = test system: α-1,4-glucan lyase; assay: Inhibition studies of α-1,4-glucan lyase activity; format: biochemical, Gracilariopsis lemaneiformis; settings: products accumulating during the enzyme reaction
Protocol: The reaction mixture for the assay of α-1,4-glucan lyase was composed of 240 μl 62.5 mM Mops-NaOH containing 6 mg soluble starch (pH 6.2), the enzyme preparation and distilled water to a final volume of 300 μl. The reaction was carried out at 30° C. for 10-30 min. Liberated 1,5-anhydrofructose was determined by monitoring the absorbance at 546 nm after the addition of 3,5-dinitrosalicylic acid reagent. Soluble starch in the reaction mixture may be replaced by other substrates and the final substrate concentration may be varied as indicated in the text. The reaction time and enzyme concentration used in enzyme activity assay have been chosen to ensure the linearity of the reaction rate. One unit of α-1,4-glucan lyase activity is defined as the amount of enzyme which liberates 1μmol of 1,5-anhydrofructose min^-1 under the conditions described above.

[2] = format: physicochemical; settings: for Absorbance at 546 nm: room temperature; for Absorbance (546 nm): Table VII, 10 min after DNS reagent
Protocol: It can be seen that the reaction was completed in less than 10 minutes. […] (1990) Methods in Plant Biochemistry (Dey, P. M. and Harborne, J. B., eds.), Vol.3, pp. 103-127, Academic Press, London). |Time-course reaction of AF with DNS reagent at room |temperature. The absorbance at 546 nm as a measure of reaction |rate was recorded soon after the addition of 300 μl DNS reagent |to 300 μl sample solution containing varying amount of AF. […] The reaction of AF with 3,5-dinitrosalicylic acid reagent occurred at room temperature and was completed within 10 min (Table VI). A linear relationship exists for AF between the absorbance of 0.1-2.3 at 546 nm and AF content, ranging from 0.3-2.7 μmol or 50-440 μg i 300 μl sample (Table VII). […] This method is applicable to both the smallest substrate as maltose and the largest substrate as amylopectin. |The correlation between AF content and absorbance. |Absorbance was measured 10 min after the addition of |300 μl DNS reagent to 300 μl sample solution |containing varying amount of AF as indicated.

[3] = test system: hexokinase and glucose-6-phosphate dehydrogenase pathway; assay: Metabolization of AF by hexokinase and glucose-6-phosphate dehydrogenase; format: biochemical
[4] = test system: glucose peroxidase; assay: Metabolization of AF by glucose peroxidase; format: biochemical

O=C1CO[C@H](CO)[C@@H](O)[C@@H]1O [AF, 1,5-anhydrofructose]
product inhibition: effect on enzyme reaction rate [1]: negligible effect
reducing power (in words) ([2]; 3,5-dinitrosalicylic acid reagent at room temperature): high reducing power
Absorbance at 546 nm ([2]; AF content 0.55 μmol, reaction time 0 min): 0
Absorbance at 546 nm ([2]; AF content 0.55 μmol, reaction time 1 min): 0.037
Absorbance at 546 nm ([2]; AF content 0.55 μmol, reaction time 2 min): 0.180
Absorbance at 546 nm ([2]; AF content 0.55 μmol, reaction time 3 min): 0.274
Absorbance at 546 nm ([2]; AF content 0.55 μmol, reaction time 4 min): 0.341
Absorbance at 546 nm ([2]; AF content 0.55 μmol, reaction time 5 min): 0.386
Absorbance at 546 nm ([2]; AF content 0.55 μmol, reaction time 6 min): 0.414
Absorbance at 546 nm ([2]; AF content 0.55 μmol, reaction time 7 min): 0.431
Absorbance at 546 nm ([2]; AF content 0.55 μmol, reaction time 8 min): 0.440
Absorbance at 546 nm ([2]; AF content 0.55 μmol, reaction time 9 min): 0.444
Absorbance at 546 nm ([2]; AF content 0.55 μmol, reaction time 10 min): 0.446
Absorbance at 546 nm ([2]; AF content 1.26 μmol, reaction time 0 min): 0
Absorbance at 546 nm ([2]; AF content 1.26 μmol, reaction time 1 min): 0.218
Absorbance at 546 nm ([2]; AF content 1.26 μmol, reaction time 2 min): 0.468
Absorbance at 546 nm ([2]; AF content 1.26 μmol, reaction time 3 min): 0.660
Absorbance at 546 nm ([2]; AF content 1.26 μmol, reaction time 4 min): 0.796
Absorbance at 546 nm ([2]; AF content 1.26 μmol, reaction time 5 min): 0.888
Absorbance at 546 nm ([2]; AF content 1.26 μmol, reaction time 6 min): 0.948
Absorbance at 546 nm ([2]; AF content 1.26 μmol, reaction time 7 min): 0.985
Absorbance at 546 nm ([2]; AF content 1.26 μmol, reaction time 8 min): 1.007
Absorbance at 546 nm ([2]; AF content 1.26 μmol, reaction time 9 min): 1.024
Absorbance at 546 nm ([2]; AF content 1.26 μmol, reaction time 10 min): 1.029
Absorbance at 546 nm ([2]; AF content 2.36 μmol, reaction time 0 min): 0
Absorbance at 546 nm ([2]; AF content 2.36 μmol, reaction time 1 min): 0.476
Absorbance at 546 nm ([2]; AF content 2.36 μmol, reaction time 2 min): 0.930
Absorbance at 546 nm ([2]; AF content 2.36 μmol, reaction time 3 min): 1.271
Absorbance at 546 nm ([2]; AF content 2.36 μmol, reaction time 4 min): 1.510
Absorbance at 546 nm ([2]; AF content 2.36 μmol, reaction time 5 min): 1.671
Absorbance at 546 nm ([2]; AF content 2.36 μmol, reaction time 6 min): 1.775
Absorbance at 546 nm ([2]; AF content 2.36 μmol, reaction time 7 min): 1.840
Absorbance at 546 nm ([2]; AF content 2.36 μmol, reaction time 8 min): 1.880
Absorbance at 546 nm ([2]; AF content 2.36 μmol, reaction time 9 min): 1.905
Absorbance at 546 nm ([2]; AF content 2.36 μmol, reaction time 10 min): 1.920
Absorbance at 546 nm ([2]; AF content 2.84 μmol, reaction time 0 min): 0
Absorbance at 546 nm ([2]; AF content 2.84 μmol, reaction time 1 min): 0.559
Absorbance at 546 nm ([2]; AF content 2.84 μmol, reaction time 2 min): 1.222
Absorbance at 546 nm ([2]; AF content 2.84 μmol, reaction time 3 min): 1.628
Absorbance at 546 nm ([2]; AF content 2.84 μmol, reaction time 4 min): 1.898
Absorbance at 546 nm ([2]; AF content 2.84 μmol, reaction time 5 min): 2.070
Absorbance at 546 nm ([2]; AF content 2.84 μmol, reaction time 6 min): 2.176
Absorbance at 546 nm ([2]; AF content 2.84 μmol, reaction time 7 min): 2.239
Absorbance at 546 nm ([2]; AF content 2.84 μmol, reaction time 8 min): 2.278
Absorbance at 546 nm ([2]; AF content 2.84 μmol, reaction time 9 min): 2.300
Absorbance at 546 nm ([2]; AF content 2.84 μmol, reaction time 10 min): 2.311
Absorbance (546 nm) ([2]; AF content 0.264 μmol): 0.113
Absorbance (546 nm) ([2]; AF content 0.340 μmol): 0.154
Absorbance (546 nm) ([2]; AF content 0.360 μmol): 0.166
Absorbance (546 nm) ([2]; AF content 0.526 μmol): 0.305
Absorbance (546 nm) ([2]; AF content 0.540 μmol): 0.237
Absorbance (546 nm) ([2]; AF content 0.636 μmol): 0.355
Absorbance (546 nm) ([2]; AF content 0.655 μmol): 0.514
Absorbance (546 nm) ([2]; AF content 0.702 μmol): 0.584
Absorbance (546 nm) ([2]; AF content 0.929 μmol): 0.682
Absorbance (546 nm) ([2]; AF content 1.089 μmol): 0.710
Absorbance (546 nm) ([2]; AF content 1.148 μmol): 0.880
Absorbance (546 nm) ([2]; AF content 1.181 μmol): 0.880
Absorbance (546 nm) ([2]; AF content 1.241 μmol): 1.099
Absorbance (546 nm) ([2]; AF content 1.514 μmol): 1.415
Absorbance (546 nm) ([2]; AF content 1.529 μmol): 1.260
Absorbance (546 nm) ([2]; AF content 1.588 μmol): 1.516
Absorbance (546 nm) ([2]; AF content 1.627 μmol): 1.302
Absorbance (546 nm) ([2]; AF content 1.712 μmol): 1.409
Absorbance (546 nm) ([2]; AF content 2.031 μmol): 1.830
Absorbance (546 nm) ([2]; AF content 2.052 μmol): 1.703
Absorbance (546 nm) ([2]; AF content 2.183 μmol): 1.806
Absorbance (546 nm) ([2]; AF content 2.241 μmol): 1.787
Absorbance (546 nm) ([2]; AF content 2.362 μmol): 1.875
Absorbance (546 nm) ([2]; AF content 2.683 μmol): 2.266
Absorbance (546 nm) ([2]; AF content 3.221 μmol): 2.590
metabolization through hexokinase and glucose-6-phosphate dehydrogenase pathway [3]: can not be metabolized
metabolization by glucose peroxidase [4]: can not be metabolized
